# Paper PMC12736008, “New Dimethylpyridine-3-Carboxamide Derivatives as MMP-13 Inhibitors with Anticancer Activity” (Molecules, 2025)
# Assays:
# MTT assay, NHDF = type: cell-based, human; conditions: human, NHDF cells (normal human dermal fibroblasts), 0.004 mM to 0.5 mM
# Excerpt: As mentioned earlier, MMP-13 is overexpressed and functionally significant in various cancers, including melanoma and colorectal carcinoma. For instance, high MMP-13 levels have been correlated with metastasis and poor survival in melanoma patients. In colorectal cancer, elevated MMP-13 activity has been observed in tumors compared to normal mucosa, and its expression is associated with a worse prognosis. Based on computational studies, four out of the eleven designed compounds showing the most promising predicted activity against MMP-13 were selected for biological evaluation. For the MTT assay, NHDF cells were used as the healthy reference cell line, while A375 (melanoma) and HT-29 (colorectal adenocarcinoma cancer) cell lines were chosen as cancer models.
# Experiments were conducted using two cancer cell lines and, as a control, a normal human dermal fibroblasts (NHDF; ATCC PCS-201-012). The A375 cell line (human melanoma, ATCC CRL-1619), and HT-29 cell line (human colorectal adenocarcinoma, ATCC HTB-38) were cultured in DMEM (Dulbecco’s Modified Eagle Medium, Institute of Immunology and Experimental Therapy (IITD), Wrocław, Poland) supplemented with 1% antibiotics (10 U/mL penicillin and 10 µg/mL streptomycin, Sigma-Aldrich, St Louis, MO, USA), 1% glutamine (Sigma-Aldrich, St Louis, MO, USA) and 10% fetal bovine serum (FBS, Gibco, Grand Island, NY, USA). For NHDF cultures, α-MEM (α-Minimum Essentials Medium, Institute of Immunology and Experimental Therapy (IITD), Poland) was used with the same supplement combination as for the cancer cell lines. All cells were maintained in a humidified incubator (INCO 105, Memmert GmbH, Schwabach, Germany) at 37 °C with 5% CO2 and 95% humidity. Cells were passaged routinely by trypsinization (twice a week). For the MTT (3-(4,5-simethylthiazol-2,5-diphenyltetrazolinum bromide), Sigma, St. Louis, MO, USA) assay, cells were used after 2–4 passages, when they reached approximately 80% confluence.
# All tested compounds were dissolved in DMSO to obtain stock solutions with a final concentration of 50 mM (3a, 3b, 3e), 40 mM (3f, 3g, 3i, 3j), and 35 mM (3h, 3k). […] In the next step, 10 µL of each stock solution was added to 990 µL of supplemented medium.
# The MTT assay was performed in 96-well plates, with a seeding density of 1 × 10^4 cells per well. All cell lines were incubated for 24 h in their respective media: α-MEM for (NHDF cells) and DMEM for (A375 and HT-29) cells. After incubation, the medium was removed and replaced with fresh medium containing the tested compounds at concentrations ranging from 0.004 mM to 0.5 mM. […] Absorbance was measured spectrophotometrically at a wavelength of 570 nm using a BioTek SYNERGY H1 microplate reader (Agilent, Santa Clara, CA, USA).
# MMP-13 = biological target: T1, MMP-13 (Homo sapiens, UniProt P45452); assay: MMP-13 inhibitor screening assay kit (fluorometric); type: biochemical; conditions: single-point screening; tested compounds 1.8 to 4.6 µM
# T1 construct: purchased Abcam ab139451
# Procedure: (§1) The inhibitory activity of the designed compounds against MMP-13 was evaluated using a commercial fluorometric MMP-13 inhibitor assay kit (Abcam, Cambridge, UK), following the manufacturer’s protocol. Solutions of the tested compounds were prepared at concentrations ranging from 1.8 to 4.6 µM. N-isobutyl-N-(4-methoxyphenylsulfonyl)glycyl hydroxamic acid (NNGH), a broad-spectrum inhibitor of matrix metalloproteinases, was used as positive control. […] In parallel, MMP-8 inhibition assays were also conducted using the same concentrations of compounds 3b, 3c, 3d, and 3g.
# (§2) It should be emphasized that these assays were performed as single-point screening experiments, optimized for rapid qualitative assessment rather than full kinetic characterization. Consequently, the observed differences in activity between MMP-13 and MMP-8 are indicative trends supporting the selectivity predicted by computational studies, including docking, molecular dynamics simulations, and binding free energy calculations, rather than providing definitive quantitative evidence.
# (§3) The inhibitory activity of the tested compounds was evaluated using the MMP-13 inhibitor screening assay kit (fluorometric) (Abcam, ab139451). The assay performed according to the manufacturer’s instructions. The designed compounds were tested at concentrations ranging from 1.8 to 4.6 µM, to determine their inhibitory activity. […]
# MMP-8 = biological target: T2, MMP-8 (Homo sapiens, UniProt P22894); assay: MMP-8 inhibitory screening assay kit (fluorometric); type: biochemical; conditions: single-point screening; same concentrations, 1.8 to 4.6 µM
# T2 construct: purchased Abcam ab139453
# T2 sequence (P22894 101-467): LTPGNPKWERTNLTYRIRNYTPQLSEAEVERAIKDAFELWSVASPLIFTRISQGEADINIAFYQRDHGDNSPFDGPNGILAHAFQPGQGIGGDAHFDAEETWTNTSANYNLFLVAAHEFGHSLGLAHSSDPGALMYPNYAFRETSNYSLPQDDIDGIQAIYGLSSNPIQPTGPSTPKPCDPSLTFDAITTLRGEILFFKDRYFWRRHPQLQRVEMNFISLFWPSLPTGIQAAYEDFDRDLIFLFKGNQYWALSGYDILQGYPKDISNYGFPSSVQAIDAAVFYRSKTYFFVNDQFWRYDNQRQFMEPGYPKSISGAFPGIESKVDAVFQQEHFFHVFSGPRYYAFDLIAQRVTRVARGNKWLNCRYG
# Procedure: as §1, §2, §3
SMILES,"viability at 24 h (MTT assay, NHDF) [%]",MMP-13 activity inhibition (MMP-13),MMP-8 activity inhibition (MMP-8)
"Cc1cc(C)c(C(=O)NCC(=O)NCc2ccccc2Cl)c(S)n1 [Compound 3d, N-{2-[(2-chlorobenzyl)amino]-2-oxoethyl}-4,6-dimethyl-2-sulfanylpyridine-3-carboxamide]",> 63,–,–
"Cc1cc(C)c(C(=O)NCC(=O)NCc2ccccc2)c(S)n1 [Compound 3g, 4,6-dimethyl-N-[2-(benzylamino)-2-oxoethyl]-2-sulfanylpyridine-3-carboxamide]",–,most pronounced inhibitory effect,slight inhibitory activity
